Assays:
Type in all cases: in vivo, human
[1] = system: patients with Becker muscular dystrophy (BMD); test: Functional sympatholysis: LBNP-induced decrease in forearm muscle oxygenation (NIR spectroscopy) at rest vs handgrip, tadalafil acute crossover trial
Method: Forearm muscle oxygenation was measured with near-infrared (NIR) spectroscopy, which is based on the principle that laser light with wavelengths in the 700-900 nm range easily penetrates skeletal muscle, and is absorbed by the iron-porphyrin moieties in hemoglobin and myoglobin. Changes in NIR light absorption are proportional to changes in the relative concentrations of oxygenated hemoglobin and myoglobin (HbO2 and MbO2). Because of their nearly identical absorption spectra, individual contributions of HbO2 and MbO2 cannot be determined. The NIR signals reflect changes in oxygenation occurring mainly in the microvasculature, because vessels greater than one millimeter in diameter are maximal absorbers of photons due to the high extinction coefficient of blood. Thus, NIR spectroscopy provides continuous measurement of the adequacy of tissue oxygen delivery relative to its use. […] Changes in forearm tissue oxygenation were expressed as a percentage of […] exercise was performed using a dynamometer ([…] Dynamometer modified by Stoelting, Wood Dale, Ill.). […] The pressure in the chamber was measured by a Statham transducer (Gould Inc., Oxnard, Calif.). […] Reflex vasoconstriction was measured as the LBNP-induced decrease in forearm muscle oxygenation by NIR spectroscopy; this approach provides a valid measure of reflex neurogenic vasoconstriction under these conditions (13). The BP, heart rate, handgrip force, and NIR signals were recorded in response to two minutes of LBNP applied at rest and during the third to fifth minutes of the seven-minute exercise period. […] Patients were queried about potential tadalafil-specific side-effects both for safety monitoring and to assess whether blinding was maintained. tadalafil blood levels were measured using high performance liquid chromatography/tandem mass spectrometry (NMS Labs Willow Grove, Pa.). […] Exercise-induced attenuation of reflex vasoconstriction (functional sympatholysis) was assessed by comparing the LBNP-induced AHbO2+MbO2 (% TLS) at rest vs. the LBNP-induced decrease in AHbO2+MbO2 during handgrip. […]

[2] = Tadalafil blood levels by HPLC/tandem MS in BMD patients
Method: The order of tadalafil/placebo was random. The research pharmacist placed tadalafil tablets or lactose powder (placebo) in opaque capsules to blind patients and investigators, both for the test dose and study dose of drug or placebo. Patients were queried about potential tadalafil-specific side-effects both for safety monitoring and to assess whether blinding was maintained. tadalafil blood levels were measured using high performance liquid chromatography/tandem mass spectrometry (NMS Labs Willow Grove, Pa.).

[3] = system: boys with Duchenne muscular dystrophy (DMD); test: Exercise-induced hyperemia: brachial artery blood flow by Doppler ultrasound and hemodynamics, rest and post handgrip; parameters: key to BA velocity: mean blood velocity in cm/s; Heart rate: unit not given here
Method: Subjects were studied in the supine position. Heart rate was measured continuously by electrocardiography, and blood pressure measured by automated oscillometric sphygomanometry using a child's cuff ([…] Monitor 300 Series). Brachial artery mean blood velocity (MBV) was measured from the exercising arm using pulsed-Doppler ultrasonography (Siemens iE33). Data were acquired continuously with a 9-MHz probe with a 60° angle of insonation, placed on the skin surface distal to the axilla. The ultrasound gate was optimized to ensure complete insonation of the entire vessel cross-section with constant intensity. The Doppler audio signal was converted to a real-time flow velocity signal using a validated Doppler audio converter,^8B and recorded using a PowerLab data acquisition system (ADInstruments, CO). Brachial artery diameter was measured by B-mode imaging in triplicate at rest. […] Brachial artery blood flow was calculated as MBV (cm/s)·πr^2·60, where r is radius of the brachial artery. […] exercise was performed with a dynamometer ([…] Dynamometer modified by Stoelting). To determine maximal voluntary contraction (MVC), each subject was asked to grip the dynamometer as hard as possible. […] Vascular conductance was calculated as forearm blood flow divided by mean arterial pressure. […] Patients then crossed over 2 weeks later for the opposite drug. […] Patients were queried about potential side-effects throughout the study visit. Baseline characteristics of patients and controls were compared using Student's t test. Exercise-induced attenuation of reflex vasoconstriction (functional sympatholysis) was assessed by comparing the LBNP-induced AHbO2+MbO2 (% TLS) at rest versus the LBNP-induced decrease in ΔHbO2+MbO2 during handgrip. Group differences in ΔHbO2+MbO2 were assessed using a Student's t test. The drug treatment effect on LBNP-induced Δ·HbO2+MbO2 (% TLS) at rest versus the LBNP-induced decrease in ΔHbO2+MbO2 during handgrip was compared to baseline for each patient using a Student's t test. The group difference in the % Δ in brachial artery blood flow was assessed using a student's t test. The drug treatment effect on the % Δ in brachial artery blood flow was compared using a student's t test. All analyses were performed in SigmaPlot. Data are expressed as mean±SEM, unless otherwise specified.

With `CN1CC(=O)N2[C@H](c3ccc4c(c3)OCO4)c3[nH]c4ccccc4c3C[C@@H]2C1=O` [tadalafil] the “attenuation of the reflex (LBNP) decrease in muscle oxygenation during handgrip” value ([1]; 10 BMD patients, single 20 mg oral tadalafil, >=3 h after dose) was 52±12%, the “LBNP-induced ΔHbO2+MbO2 (% TLS) at rest” value ([1]; BMD patients, 20 mg tadalafil, at rest) was −17±2% and the “LBNP-induced ΔHbO2+MbO2 (% TLS) during handgrip” value ([1]; BMD patients, 20 mg tadalafil, during handgrip 20% MVC) was −9±2%. For the same compound, the “peak blood concentration of tadalafil in patient P10 (no sympatholysis)” value ([2]; BMD patient P10, 20 mg oral) was 300 ng/mL, the “peak tadalafil blood concentration, mean” value ([2]; BMD patients, 20 mg oral) was 260 ± 13 ng/mL and the “peak tadalafil blood concentrations, range” value ([2]; BMD patients, 20 mg oral) was 170 to 310 ng/mL. The “BA VC (vascular conductance)” value ([3]; 0.5 mg/kg, Post-exercise) was 2.6 ± 0.4 ml/min/mmHg, the BA blood flow ([3]; 0.5 mg/kg, Post-exercise) was 184 ± 24 mL/min and the BA velocity ([3]; 0.5 mg/kg, Post-exercise) was 38 ± 5. For the same compound, the Heart rate ([3]; 0.5 mg/kg, Post-exercise) was 94 ± 3, the MAP ([3]; 0.5 mg/kg, Post-exercise) was 72 ± 2 mmHg and the “BA VC (vascular conductance)” value ([3]; 0.5 mg/kg, Rest) was 1.7 ± 0.3 ml/min/mmHg. The BA blood flow ([3]; 0.5 mg/kg, Rest) was 118 ± 15 mL/min, the BA velocity ([3]; 0.5 mg/kg, Rest) was 26 ± 4 and the Heart rate ([3]; 0.5 mg/kg, Rest) was 91 ± 3. For the same compound, the MAP ([3]; 0.5 mg/kg, Rest) was 74 ± 3 mmHg, the “BA VC (vascular conductance)” value ([3]; 1.0 mg/kg, Post-exercise) was 2.5 ± 0.3 ml/min/mmHg and the BA blood flow ([3]; 1.0 mg/kg, Post-exercise) was 170 ± 17 mL/min. For the same compound, the BA velocity ([3]; 1.0 mg/kg, Post-exercise) was 35 ± 4, the Heart rate ([3]; 1.0 mg/kg, Post-exercise) was 92 ± 4 and the MAP ([3]; 1.0 mg/kg, Post-exercise) was 71 ± 3 mmHg. The “BA VC (vascular conductance)” value ([3]; 1.0 mg/kg, Rest) was 1.5 ± 0.3 ml/min/mmHg, the BA blood flow ([3]; 1.0 mg/kg, Rest) was 104 ± 14 mL/min and the BA velocity ([3]; 1.0 mg/kg, Rest) was 21 ± 3. For the same compound, the Heart rate ([3]; 1.0 mg/kg, Rest) was 91 ± 3 and the MAP ([3]; 1.0 mg/kg, Rest) was 71 ± 2 mmHg.

Reference: US20160067246A1, “USE OF PHOSPHODIESTERASE 5A INHIBITORS FOR THE TREATMENT OF MUSCULAR DYSTROPHY” (CEDARS-SINAI MEDICAL CENTER, priority 2013, published 2016)
